{"source": "patent US11840525B2", "about": "“Use of AURKB small-molecule inhibitors for treatment of non-small cell lung cancer” (Nanjing China-Australia Institute of Translational Medicine …, priority 2016, dated 2023)", "biological_target": "AURKB (Homo sapiens, UniProt Q96GD4)", "sequence (Q96GD4 1-345 isoform Q96GD4-5)": "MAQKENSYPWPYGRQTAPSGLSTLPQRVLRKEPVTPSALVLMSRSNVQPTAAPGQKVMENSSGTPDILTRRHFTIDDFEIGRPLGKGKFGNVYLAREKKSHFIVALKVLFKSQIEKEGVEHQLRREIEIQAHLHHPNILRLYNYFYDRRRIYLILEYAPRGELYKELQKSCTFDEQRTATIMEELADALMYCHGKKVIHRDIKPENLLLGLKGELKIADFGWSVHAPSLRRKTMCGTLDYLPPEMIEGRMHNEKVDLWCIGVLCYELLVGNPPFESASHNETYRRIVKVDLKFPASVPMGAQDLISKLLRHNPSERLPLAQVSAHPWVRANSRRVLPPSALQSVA", "assay": "Microscale thermophoresis (MST) binding to AURKB protein", "design": "made in house; host or cells: E. coli BL21", "conditions": "prokaryotically expressed GST-AURKB, read-out: dissociation constant of binding to AURKB protein", "method": "Thus, it is speculated that the treatment affected the activity of a kinase which was able to phosphorylate the H3S10. The following procedures were conducted to verify whether TZ47 inhibited the activity of AURKB directly. First, prokaryotic expression of AURKB protein and purification were performed and then a microscale thermophoresis (MST) was used to detect the binding between TZ47 and AURKB protein by testing the change of microscale thermophoresis caused by the hydrated layer (generally derived from the change of the structure/conformation of biomolecules) based on the directional movement of particles in a microscopic temperature gradient. […] Flag-tagged AURKB protein was then enriched by M2-flag beads (anti-Flag antibody conjugated) from the lysed liquid of 293T cells and used in the in-vitro kinase activity analysis. It can be seen from FIGS. 6A-6B that the Flag-AURKB protein had kinase activity and can phosphorylate histone H3.\nThe cDNA of 293T cells of human was used as the template to amplify the AURKB CDS sequence in the presence of LATaq enzyme. […]\n1 mL of the eluent was added to the EP tube containing GST beads, rotated at 4° C. for 30 min and centrifuged at 3,000 rpm for 3 min. […] An appropriate amount of the combined supernatant was subjected to SDS-PAGE for the determination of elution efficiency and protein purity and quantity. • b. […]"}
{"smiles": "c1ccc2c(Cc3[nH]c4ccccc4c3Cc3c[nH]c4ccccc34)c[nH]c2c1", "note": "[TZ47]", "values": [{"measurement": "Kd", "result": "135 ± 2", "unit": "nM"}]}
